Legend:
Test in all cases: KINOMEscan scanMAX
Type in all cases: binding
GSK3B = target: T1, GSK3B (Homo sapiens, UniProt P49841); conditions: read-out: Percent Control
T1 construct: purchased Eurofins Discovery (DiscoverX KINOMEscan scanMAX)
Method: (§1) The kinome-wide binding assay was performed by Eurofins Discovery using the scanMAX screening platform. More information can be found on the Eurofins Discovery Web site.

PRP4 = target: T2, PRP4 (Homo sapiens, UniProt Q13523); conditions: read-out: Percent Control
T2 construct: purchased Eurofins Discovery (DiscoverX KINOMEscan scanMAX)
Method: as §1

p38-delta = target: T3, p38-delta (Homo sapiens, UniProt O15264); conditions: read-out: Percent Control
T3 construct: purchased Eurofins Discovery (DiscoverX KINOMEscan scanMAX)
Method: as §1

ERBB2 = target: T4, ERBB2 (Homo sapiens, UniProt P04626); conditions: read-out: Percent Control
T4 construct: purchased Eurofins Discovery (DiscoverX KINOMEscan scanMAX)
Method: as §1

[1] = target: T5, RPS6KA4(Kin.Dom.2-C-terminal) (Homo sapiens, UniProt O75676); conditions: read-out: Percent Control
T5 construct: RPS6KA4(Kin.Dom.2-C-terminal); purchased Eurofins Discovery (DiscoverX KINOMEscan scanMAX)
Method: as §1

HIPK1 = target: T6, HIPK1 (Homo sapiens, UniProt Q86Z02); conditions: read-out: Percent Control
T6 construct: purchased Eurofins Discovery (DiscoverX KINOMEscan scanMAX)
Method: as §1

PIK3CA(H1047L) = target: T7, PIK3CA(H1047L) (Homo sapiens, UniProt P42336, H1047L); conditions: read-out: Percent Control
T7 construct: purchased Eurofins Discovery (DiscoverX KINOMEscan scanMAX)
Method: as §1

FLT3(ITD,D835V) = tested on: FLT3(ITD,D835V)
Method: as §1

CDKL5 = target: T8, CDKL5 (Homo sapiens, UniProt O76039); conditions: read-out: Percent Control
T8 construct: purchased Eurofins Discovery (DiscoverX KINOMEscan scanMAX)
Method: as §1

CLK1 = target: T9, CLK1 (Homo sapiens, UniProt P49759); conditions: read-out: Percent Control
T9 construct: purchased Eurofins Discovery (DiscoverX KINOMEscan scanMAX)
Method: as §1

SgK110 = target: T10, SgK110 (Homo sapiens, UniProt P0C264); conditions: read-out: Percent Control
T10 construct: purchased Eurofins Discovery (DiscoverX KINOMEscan scanMAX)
Method: as §1

CDKL3 = target: T11, CDKL3 (Homo sapiens, UniProt Q8IVW4); conditions: read-out: Percent Control
T11 construct: purchased Eurofins Discovery (DiscoverX KINOMEscan scanMAX)
Method: as §1

ADCK3 = target: T12, ADCK3 (Homo sapiens, UniProt Q8NI60); conditions: read-out: Percent Control
T12 construct: purchased Eurofins Discovery (DiscoverX KINOMEscan scanMAX)
Method: as §1

SRPK2 = target: T13, SRPK2 (Homo sapiens, UniProt P78362); conditions: read-out: Percent Control
T13 construct: purchased Eurofins Discovery (DiscoverX KINOMEscan scanMAX)
Method: as §1

PRKD2 = target: T14, PRKD2 (Homo sapiens, UniProt Q9BZL6); conditions: read-out: Percent Control
T14 construct: purchased Eurofins Discovery (DiscoverX KINOMEscan scanMAX)
Method: as §1

FGFR3 = target: T15, FGFR3 (Homo sapiens, UniProt P22607); conditions: read-out: Percent Control
T15 construct: purchased Eurofins Discovery (DiscoverX KINOMEscan scanMAX)
Method: as §1

EPHA7 = target: T16, EPHA7 (Homo sapiens, UniProt Q15375); conditions: read-out: Percent Control
T16 construct: purchased Eurofins Discovery (DiscoverX KINOMEscan scanMAX)
Method: as §1

PAK1 = target: T17, PAK1 (Homo sapiens, UniProt Q13153); conditions: read-out: Percent Control
T17 construct: purchased Eurofins Discovery (DiscoverX KINOMEscan scanMAX)
Method: as §1

GRK4 = target: T18, GRK4 (Homo sapiens, UniProt P32298); conditions: read-out: Percent Control
T18 construct: purchased Eurofins Discovery (DiscoverX KINOMEscan scanMAX)
Method: as §1

TNNI3K = target: T19, TNNI3K (Homo sapiens, UniProt Q59H18); conditions: read-out: Percent Control
T19 construct: purchased Eurofins Discovery (DiscoverX KINOMEscan scanMAX)
Method: as §1

RET(V804L) = target: T20, RET(V804L) (Homo sapiens, UniProt P07949, V804L); conditions: read-out: Percent Control
T20 construct: purchased Eurofins Discovery (DiscoverX KINOMEscan scanMAX)
Method: as §1

PIK3C2B = target: T21, PIK3C2B (Homo sapiens, UniProt O00750); conditions: read-out: Percent Control
T21 construct: purchased Eurofins Discovery (DiscoverX KINOMEscan scanMAX)
Method: as §1

PDGFRA = target: T22, PDGFRA (Homo sapiens, UniProt P16234); conditions: read-out: Percent Control
T22 construct: purchased Eurofins Discovery (DiscoverX KINOMEscan scanMAX)
Method: as §1

CSNK1A1L = target: T23, CSNK1A1L (Homo sapiens, UniProt Q8N752); conditions: read-out: Percent Control
T23 construct: purchased Eurofins Discovery (DiscoverX KINOMEscan scanMAX)
Method: as §1

TAK1 = target: T24, TAK1 (Homo sapiens, UniProt O43318); conditions: read-out: Percent Control
T24 construct: purchased Eurofins Discovery (DiscoverX KINOMEscan scanMAX)
Method: as §1

[2] = target: T25, JAK1(JH2domain-pseudokinase) (Homo sapiens, UniProt P23458); conditions: read-out: Percent Control
T25 construct: JAK1(JH2domain-pseudokinase); purchased Eurofins Discovery (DiscoverX KINOMEscan scanMAX)
Method: as §1

[3] = target: T26, ABL1(H396P)-nonphosphorylated (Homo sapiens, UniProt P00519, H396P); conditions: read-out: Percent Control
T26 construct: purchased Eurofins Discovery (DiscoverX KINOMEscan scanMAX)
Method: as §1

KIT = target: T27, KIT (Homo sapiens, UniProt P10721); conditions: read-out: Percent Control
T27 construct: purchased Eurofins Discovery (DiscoverX KINOMEscan scanMAX)
Method: as §1

PIM1 = target: T28, PIM1 (Homo sapiens, UniProt P11309); conditions: read-out: Percent Control
T28 construct: purchased Eurofins Discovery (DiscoverX KINOMEscan scanMAX)
Method: as §1

BMPR2 = target: T29, BMPR2 (Homo sapiens, UniProt Q13873); conditions: read-out: Percent Control
T29 construct: purchased Eurofins Discovery (DiscoverX KINOMEscan scanMAX)
Method: as §1

EPHB6 = target: T30, EPHB6 (Homo sapiens, UniProt O15197); conditions: read-out: Percent Control
T30 construct: purchased Eurofins Discovery (DiscoverX KINOMEscan scanMAX)
Method: as §1

MAP3K4 = target: T31, MAP3K4 (Homo sapiens, UniProt Q9Y6R4); conditions: read-out: Percent Control
T31 construct: purchased Eurofins Discovery (DiscoverX KINOMEscan scanMAX)
Method: as §1

ASK2 = target: T32, ASK2 (Homo sapiens, UniProt O95382); conditions: read-out: Percent Control
T32 construct: purchased Eurofins Discovery (DiscoverX KINOMEscan scanMAX)
Method: as §1

T9 sequence (P49759 whole entry): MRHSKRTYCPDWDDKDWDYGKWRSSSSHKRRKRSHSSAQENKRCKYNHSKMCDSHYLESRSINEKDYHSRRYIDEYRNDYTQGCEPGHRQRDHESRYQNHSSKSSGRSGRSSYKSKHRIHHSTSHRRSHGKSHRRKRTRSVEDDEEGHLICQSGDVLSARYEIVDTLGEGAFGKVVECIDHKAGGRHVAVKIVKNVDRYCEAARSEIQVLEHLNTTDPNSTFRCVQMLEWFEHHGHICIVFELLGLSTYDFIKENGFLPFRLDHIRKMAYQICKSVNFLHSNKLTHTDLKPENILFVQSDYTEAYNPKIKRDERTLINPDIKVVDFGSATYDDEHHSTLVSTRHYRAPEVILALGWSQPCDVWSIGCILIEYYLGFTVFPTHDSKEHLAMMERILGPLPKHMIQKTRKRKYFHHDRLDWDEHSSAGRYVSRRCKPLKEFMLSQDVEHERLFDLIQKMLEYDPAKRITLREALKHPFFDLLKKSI
T14 sequence (Q9BZL6 whole entry): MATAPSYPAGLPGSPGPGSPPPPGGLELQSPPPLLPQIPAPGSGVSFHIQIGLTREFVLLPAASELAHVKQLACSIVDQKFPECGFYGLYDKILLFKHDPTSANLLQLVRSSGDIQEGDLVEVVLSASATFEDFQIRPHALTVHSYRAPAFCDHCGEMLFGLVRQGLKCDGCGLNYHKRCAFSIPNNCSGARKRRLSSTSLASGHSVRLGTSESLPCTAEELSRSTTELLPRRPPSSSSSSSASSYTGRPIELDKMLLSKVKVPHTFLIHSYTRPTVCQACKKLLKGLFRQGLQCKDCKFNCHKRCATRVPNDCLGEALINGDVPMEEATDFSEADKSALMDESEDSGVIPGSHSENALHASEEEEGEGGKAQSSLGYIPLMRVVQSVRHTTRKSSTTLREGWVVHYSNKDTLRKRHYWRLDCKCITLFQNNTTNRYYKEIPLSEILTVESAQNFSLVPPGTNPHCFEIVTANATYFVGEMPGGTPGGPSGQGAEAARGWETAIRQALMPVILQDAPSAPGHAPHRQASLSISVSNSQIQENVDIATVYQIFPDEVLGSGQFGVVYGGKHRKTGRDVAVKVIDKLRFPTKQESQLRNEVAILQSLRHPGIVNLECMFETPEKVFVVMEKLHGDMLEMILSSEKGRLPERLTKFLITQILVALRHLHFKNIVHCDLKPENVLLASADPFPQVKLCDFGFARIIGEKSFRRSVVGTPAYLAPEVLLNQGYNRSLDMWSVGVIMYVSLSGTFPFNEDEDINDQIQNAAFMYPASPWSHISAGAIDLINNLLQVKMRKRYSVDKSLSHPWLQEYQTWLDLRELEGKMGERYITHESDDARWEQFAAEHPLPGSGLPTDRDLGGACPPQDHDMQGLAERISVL
T17 sequence (Q13153 whole entry): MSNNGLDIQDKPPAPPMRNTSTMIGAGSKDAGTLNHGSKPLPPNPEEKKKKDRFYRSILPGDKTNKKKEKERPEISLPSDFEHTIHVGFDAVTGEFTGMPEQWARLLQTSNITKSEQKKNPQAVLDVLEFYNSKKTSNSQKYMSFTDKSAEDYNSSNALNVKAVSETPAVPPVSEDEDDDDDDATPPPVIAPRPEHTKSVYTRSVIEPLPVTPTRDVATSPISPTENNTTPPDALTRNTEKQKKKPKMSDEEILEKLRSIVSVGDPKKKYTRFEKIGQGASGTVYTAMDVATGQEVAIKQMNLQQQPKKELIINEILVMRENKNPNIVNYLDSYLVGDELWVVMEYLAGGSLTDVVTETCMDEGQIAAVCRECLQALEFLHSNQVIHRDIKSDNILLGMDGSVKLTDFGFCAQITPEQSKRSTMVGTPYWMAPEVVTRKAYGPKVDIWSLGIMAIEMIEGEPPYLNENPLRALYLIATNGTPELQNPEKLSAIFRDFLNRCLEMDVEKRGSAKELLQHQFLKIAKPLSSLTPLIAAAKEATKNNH
T10 sequence (P0C264 whole entry): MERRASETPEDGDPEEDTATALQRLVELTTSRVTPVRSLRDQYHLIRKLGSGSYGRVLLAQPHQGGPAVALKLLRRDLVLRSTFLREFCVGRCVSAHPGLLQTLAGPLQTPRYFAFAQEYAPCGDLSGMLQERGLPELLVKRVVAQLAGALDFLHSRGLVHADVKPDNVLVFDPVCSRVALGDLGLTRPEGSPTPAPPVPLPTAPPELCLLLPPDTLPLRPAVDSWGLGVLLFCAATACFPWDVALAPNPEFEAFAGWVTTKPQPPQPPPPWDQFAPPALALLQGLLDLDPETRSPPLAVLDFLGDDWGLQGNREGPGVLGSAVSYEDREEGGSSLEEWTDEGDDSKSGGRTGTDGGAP
T31 sequence (Q9Y6R4 whole entry): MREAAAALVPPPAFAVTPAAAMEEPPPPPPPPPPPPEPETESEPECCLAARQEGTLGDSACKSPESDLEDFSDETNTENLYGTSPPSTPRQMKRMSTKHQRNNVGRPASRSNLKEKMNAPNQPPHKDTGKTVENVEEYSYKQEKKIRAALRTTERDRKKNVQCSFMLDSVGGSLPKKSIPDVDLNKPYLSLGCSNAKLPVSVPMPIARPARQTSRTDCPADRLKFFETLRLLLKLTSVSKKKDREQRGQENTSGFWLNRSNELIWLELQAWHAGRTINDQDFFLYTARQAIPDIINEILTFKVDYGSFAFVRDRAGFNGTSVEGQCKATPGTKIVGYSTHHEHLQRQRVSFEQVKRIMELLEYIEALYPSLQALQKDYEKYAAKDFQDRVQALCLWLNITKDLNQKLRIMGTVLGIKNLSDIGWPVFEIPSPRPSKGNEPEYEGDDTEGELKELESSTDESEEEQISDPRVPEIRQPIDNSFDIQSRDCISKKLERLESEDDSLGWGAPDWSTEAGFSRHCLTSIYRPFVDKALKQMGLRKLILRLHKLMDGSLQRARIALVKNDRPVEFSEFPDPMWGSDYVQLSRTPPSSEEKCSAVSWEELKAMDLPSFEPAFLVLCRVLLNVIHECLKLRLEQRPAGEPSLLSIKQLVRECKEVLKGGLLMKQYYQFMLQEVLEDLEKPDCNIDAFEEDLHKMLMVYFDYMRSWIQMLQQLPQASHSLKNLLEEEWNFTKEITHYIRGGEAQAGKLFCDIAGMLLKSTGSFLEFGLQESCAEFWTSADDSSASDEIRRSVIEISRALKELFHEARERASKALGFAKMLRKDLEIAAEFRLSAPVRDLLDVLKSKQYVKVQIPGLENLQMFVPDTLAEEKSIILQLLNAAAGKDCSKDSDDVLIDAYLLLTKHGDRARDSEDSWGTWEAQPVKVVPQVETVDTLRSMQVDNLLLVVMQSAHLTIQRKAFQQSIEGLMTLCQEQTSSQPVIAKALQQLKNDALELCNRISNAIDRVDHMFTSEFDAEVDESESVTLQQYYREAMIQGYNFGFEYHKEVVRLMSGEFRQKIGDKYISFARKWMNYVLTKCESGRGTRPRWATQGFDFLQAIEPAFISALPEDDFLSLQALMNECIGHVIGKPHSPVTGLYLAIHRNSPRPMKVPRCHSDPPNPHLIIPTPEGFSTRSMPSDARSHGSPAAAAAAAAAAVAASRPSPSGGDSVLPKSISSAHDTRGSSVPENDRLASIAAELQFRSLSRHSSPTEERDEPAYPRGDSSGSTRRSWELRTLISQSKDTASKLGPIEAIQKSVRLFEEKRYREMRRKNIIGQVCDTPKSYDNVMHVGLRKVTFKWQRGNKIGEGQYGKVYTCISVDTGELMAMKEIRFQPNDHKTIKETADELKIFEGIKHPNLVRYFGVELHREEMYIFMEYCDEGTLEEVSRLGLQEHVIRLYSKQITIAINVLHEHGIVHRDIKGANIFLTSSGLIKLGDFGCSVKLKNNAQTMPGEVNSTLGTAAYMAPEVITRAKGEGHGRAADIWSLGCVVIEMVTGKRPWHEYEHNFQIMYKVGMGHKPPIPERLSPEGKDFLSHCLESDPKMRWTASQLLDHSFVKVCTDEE
T5 sequence (O75676 372-772 limits assumed): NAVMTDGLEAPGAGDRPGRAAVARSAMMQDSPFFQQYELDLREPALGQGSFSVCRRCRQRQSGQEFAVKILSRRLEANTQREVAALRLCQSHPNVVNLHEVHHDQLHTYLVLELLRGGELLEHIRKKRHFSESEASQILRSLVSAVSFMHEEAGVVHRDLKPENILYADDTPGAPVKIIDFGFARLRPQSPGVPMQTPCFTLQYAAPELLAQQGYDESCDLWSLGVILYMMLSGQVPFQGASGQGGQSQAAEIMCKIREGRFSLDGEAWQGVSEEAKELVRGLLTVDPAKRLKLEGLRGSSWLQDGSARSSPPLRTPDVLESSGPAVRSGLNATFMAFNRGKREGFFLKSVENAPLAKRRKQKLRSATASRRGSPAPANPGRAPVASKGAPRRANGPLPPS
T1 sequence (P49841 whole entry): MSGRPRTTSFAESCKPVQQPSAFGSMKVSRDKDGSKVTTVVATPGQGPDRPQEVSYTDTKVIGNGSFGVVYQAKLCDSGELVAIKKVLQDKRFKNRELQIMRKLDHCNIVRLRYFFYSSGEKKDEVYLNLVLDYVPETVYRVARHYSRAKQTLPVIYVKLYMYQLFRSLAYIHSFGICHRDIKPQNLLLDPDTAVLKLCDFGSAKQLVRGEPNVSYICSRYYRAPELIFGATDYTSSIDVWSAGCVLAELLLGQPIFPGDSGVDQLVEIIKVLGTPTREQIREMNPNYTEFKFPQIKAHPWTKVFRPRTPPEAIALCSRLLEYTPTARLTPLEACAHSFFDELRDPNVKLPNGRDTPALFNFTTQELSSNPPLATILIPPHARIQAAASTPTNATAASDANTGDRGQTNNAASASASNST
T25 sequence (P23458 561-860 limits assumed): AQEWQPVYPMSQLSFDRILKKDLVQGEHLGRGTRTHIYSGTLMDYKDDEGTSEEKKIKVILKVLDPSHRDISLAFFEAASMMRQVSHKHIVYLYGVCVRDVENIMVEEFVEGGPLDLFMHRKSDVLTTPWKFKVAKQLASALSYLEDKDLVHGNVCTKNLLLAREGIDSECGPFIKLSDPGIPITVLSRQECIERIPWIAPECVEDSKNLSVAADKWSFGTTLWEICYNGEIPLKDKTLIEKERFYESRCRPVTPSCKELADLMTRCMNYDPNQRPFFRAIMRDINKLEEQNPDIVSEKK

In the case of `Cc1cc(Nc2ccc(F)c(CC3(C(=O)N4CCC(F)(CN5CCN(c6ccc(N7CCC(=O)NC7=O)cn6)CC5)CC4)CCN(Cc4cccc(Cl)c4F)CC3)n2)n[nH]1` [SK5527], the remaining binding at 0.1 µM (GSK3B; 100 nM) is reported as 82%, the remaining binding at 1 µM (GSK3B; 1000 nM) is reported as 78% and the remaining binding at 0.1 µM (PRP4; 100 nM) is reported as 100%. The remaining binding at 1 µM (PRP4; 1000 nM) was 74%, the remaining binding at 0.1 µM (p38-delta; 100 nM) was 100% and the remaining binding at 1 µM (p38-delta; 1000 nM) was 100%. The remaining binding at 0.1 µM (ERBB2; 100 nM) was 100%, the remaining binding at 1 µM (ERBB2; 1000 nM) was 100% and the remaining binding at 0.1 µM ([1]; 100 nM) was 85%. For the same molecule, the remaining binding at 1 µM ([1]; 1000 nM) was 77%, the remaining binding at 0.1 µM (HIPK1; 100 nM) was 81% and the remaining binding at 1 µM (HIPK1; 1000 nM) was 92%. The remaining binding at 0.1 µM (PIK3CA(H1047L); 100 nM) was 63%, the remaining binding at 1 µM (PIK3CA(H1047L); 1000 nM) was 100% and the “Percent Control” value (FLT3(ITD,D835V); 100 nM) was 79%. The “Percent Control” value (FLT3(ITD,D835V); 1000 nM) was 59%, the remaining binding at 0.1 µM (CDKL5; 100 nM) was 94% and the remaining binding at 1 µM (CDKL5; 1000 nM) was 81%. It also gave a remaining binding at 0.1 µM (CLK1; 100 nM) of 92%, a remaining binding at 1 µM (CLK1; 1000 nM) of 77% and a remaining binding at 0.1 µM (SgK110; 100 nM) of 100%. The remaining binding at 1 µM (SgK110; 1000 nM) was 89%, the remaining binding at 0.1 µM (CDKL3; 100 nM) was 100% and the remaining binding at 1 µM (CDKL3; 1000 nM) was 83%. The remaining binding at 0.1 µM (ADCK3; 100 nM) was 100%, the remaining binding at 1 µM (ADCK3; 1000 nM) was 99% and the remaining binding at 0.1 µM (SRPK2; 100 nM) was 93%. For the same molecule, the remaining binding at 1 µM (SRPK2; 1000 nM) was 79%, the remaining binding at 0.1 µM (PRKD2; 100 nM) was 78% and the remaining binding at 1 µM (PRKD2; 1000 nM) was 90%. The remaining binding at 0.1 µM (FGFR3; 100 nM) was 96%, the remaining binding at 1 µM (FGFR3; 1000 nM) was 84% and the remaining binding at 0.1 µM (EPHA7; 100 nM) was 100%. For the same molecule, the remaining binding at 1 µM (EPHA7; 1000 nM) was 82%, the remaining binding at 0.1 µM (PAK1; 100 nM) was 100% and the remaining binding at 1 µM (PAK1; 1000 nM) was 88%. It also gave a remaining binding at 0.1 µM (GRK4; 100 nM) of 96%, a remaining binding at 1 µM (GRK4; 1000 nM) of 100% and a remaining binding at 0.1 µM (TNNI3K; 100 nM) of 73%. For the same molecule, the remaining binding at 1 µM (TNNI3K; 1000 nM) was 70%, the remaining binding at 0.1 µM (RET(V804L); 100 nM) was 92% and the remaining binding at 1 µM (RET(V804L); 1000 nM) was 38%. For the same molecule, the remaining binding at 0.1 µM (PIK3C2B; 100 nM) was 99%, the remaining binding at 1 µM (PIK3C2B; 1000 nM) was 91% and the remaining binding at 0.1 µM (PDGFRA; 100 nM) was 92%. For the same molecule, the remaining binding at 1 µM (PDGFRA; 1000 nM) was 84%, the remaining binding at 0.1 µM (CSNK1A1L; 100 nM) was 91% and the remaining binding at 1 µM (CSNK1A1L; 1000 nM) was 87%. For the same molecule, the remaining binding at 0.1 µM (TAK1; 100 nM) was 74%, the remaining binding at 1 µM (TAK1; 1000 nM) was 100% and the remaining binding at 0.1 µM ([2]; 100 nM) was 94%. The remaining binding at 1 µM ([2]; 1000 nM) was 86%, the remaining binding at 0.1 µM ([3]; 100 nM) was 68% and the remaining binding at 1 µM ([3]; 1000 nM) was 19%. It also gave a remaining binding at 0.1 µM (KIT; 100 nM) of 100%, a remaining binding at 1 µM (KIT; 1000 nM) of 61% and a remaining binding at 0.1 µM (PIM1; 100 nM) of 100%. For the same molecule, the remaining binding at 1 µM (PIM1; 1000 nM) was 99%, the remaining binding at 0.1 µM (BMPR2; 100 nM) was 98% and the remaining binding at 1 µM (BMPR2; 1000 nM) was 50%. The remaining binding at 0.1 µM (EPHB6; 100 nM) was 93%, the remaining binding at 1 µM (EPHB6; 1000 nM) was 85% and the remaining binding at 0.1 µM (MAP3K4; 100 nM) was 72%. The remaining binding at 1 µM (MAP3K4; 1000 nM) was 87%, the remaining binding at 0.1 µM (ASK2; 100 nM) was 62% and the remaining binding at 1 µM (ASK2; 1000 nM) was 56%.

Source: publication PMC12670405, “Second-Generation AURKA-Targeting PROTACs: Structural Optimization toward in Vivo Degradation in Neuroblastoma” (Journal of Medicinal Chemistry, 2025)
